From US20140005174A1, “INDOLE DERIVATIVES USEFUL AS CCR2 ANTAGONISTS” (priority 2011, published 2014)

Target: T1, human CCR2 (Homo sapiens, UniProt P41597)
T1 construct: expressed in transfected cells; host or cells: Ba/F3 cells (membranes)
Assay: CCR2 Membrane Binding Assay (SPA radio-ligand binding, 125I-rhMCP-1)
Conditions: membranes from Ba/F3 cells transfected with human CCR2; 0.03 nM 125I-rhMCP-1; 4 h room temperature
Procedure: The radio-ligand binding assay was done using scintillation proximity assay (SPA) technology. Briefly, membranes (1 μg per assay point) from Ba/F3 cells transfected with human CCR2, and wheat germ agglutinin-coated SPA beads (80 μg per point; Amersham, Arlington Heights,Ill.), were pre-incubated for 30 min at room temperature in CCR2 buffer (50 mM HEPES (pH=7.4), 10 mM MgCl2, 10 mM NaCl, 1 mM CaCL2, 0.1% BSA,10 μg/ml Saponin). At this point pre-bound SPA bead, membrane complex was incubated at room temperature for 4 h with varying concentrations of punitive CCR2 antagonists (in 1% DMSO, final) and 0.03 nM ^125I-rhMCP-1 in CCR2 Buffer (S.A. 2200 Ci/mmol, PerkinElmer Life and Analytical Science, Boston, Mass.; NEX332). Binding competition was measured using a 1450 Microbeta Trilux counter(Wallac, Gaithersburg, Md.). Binding constants (IC50 and slope) were calculated using GraphPad Prism software(GraphPad Software, Inc., La Jolla Calif.).

T1 sequence (P41597 whole entry): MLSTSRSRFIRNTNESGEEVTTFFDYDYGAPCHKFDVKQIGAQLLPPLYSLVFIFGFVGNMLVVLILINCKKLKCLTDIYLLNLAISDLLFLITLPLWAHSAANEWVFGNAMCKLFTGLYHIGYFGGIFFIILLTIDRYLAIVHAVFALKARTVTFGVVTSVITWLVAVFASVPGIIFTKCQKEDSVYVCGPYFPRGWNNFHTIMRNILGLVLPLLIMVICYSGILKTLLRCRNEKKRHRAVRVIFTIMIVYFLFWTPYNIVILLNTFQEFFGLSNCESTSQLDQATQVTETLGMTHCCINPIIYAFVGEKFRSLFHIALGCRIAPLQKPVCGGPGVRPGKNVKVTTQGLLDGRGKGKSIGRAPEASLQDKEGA

SMILES	IC50
CC(C)c1cc2ccc3[nH]c(C(=O)NC4CCN(CCN5CCCCCC5)CC4)cc3c2o1 [Compound 2]	5.4 nM
CC(C)COc1cc2c(c3[nH]c(C(=O)NC4CCN(CCN5CCCCCC5)CC4)cc13)CCC2 [Compound 16]	40 nM
CC(C)COc1cccc2[nH]c(C(=O)NC3CCN(CCN4CCCCCC4)CC3)cc12 [Compound 10]	4 nM
O=C(NC1CCN(CCN2CCCCCC2)CC1)c1cc2c(ccc3cc(-c4ccccc4)oc32)[nH]1 [Compound 17]	13 nM
O=C(NC1CCN(CCN2CCCCCC2)CC1)c1cc2c(OCc3ccccc3)cccc2[nH]1 [Compound 14]	12.5 nM

Same assay, conditions: membranes from Ba/F3 cells transfected with human CCR2; 0.03 nM 125I-rhMCP-1; class symbols

SMILES	IC50
O=C(NC1CCN(CCN2CCCCCC2)CC1)c1cc2c(cc(F)c3ccoc32)[nH]1 [Compound 6]	201 to 900 nM
COc1cc2[nH]c(C(=O)NC3CCN(CCN4CCCCCC4)CC3)cc2c2ccccc12 [Compound 11]	201 to 900 nM
O=C(NC1[C@H]2CN(CCN3CCCCCC3)C[C@@H]12)c1cc2c(ccc3cc(-c4ccccc4)oc32)[nH]1 (stereo partly shown) [Compound 19]	51 to 200 nM
O=C(NC1CCN(CCN2CCCCCC2)CC1)c1cc2c3c(c(F)cc2[nH]1)CCO3 [Compound 7]	201 to 900 nM
Cc1cc2ccc3[nH]c(C(=O)NC4CCN(CCN5CCCCCC5)CC4)cc3c2o1 [Compound 5]	51 to 200 nM
O=C(NC1CCN(CCN2CCCCCC2)CC1)c1cc2c(cc(F)c3ccccc32)[nH]1 [Compound 9]	51 to 200 nM
CCOc1cc2[nH]c(C(=O)NC3CCN(CCN4CCCCCC4)CC3)cc2c2ccccc12 [Compound 20]	51 to 200 nM
O=C(NC1CCN(CCN2CCCCCC2)CC1)c1cc2c(ccc3ccccc32)[nH]1 [Compound 4]	51 to 200 nM
O=C(NC1CCN(CCN2CCCCC2)CC1)c1cc2c(cc(F)c3ccoc32)[nH]1 [Compound 13]	201 to 900 nM
CC(C)c1cc2ccc3[nH]c(C(=O)NC4CC45CCN(CCN4CCCCCC4)CC5)cc3c2o1 (stereo not shown) [Compound 15]	51 to 200 nM
CC(C)c1cc2ccc3[nH]c(C(=O)N[C@H]4[C@@H]5CN(CCN6CCCCCC6)C[C@@H]54)cc3c2o1 [Compound 3]	51 to 200 nM
O=C(NC1CCN(CCN2CCCCCC2)CC1)c1cc2c3ccccc3ccc2n1Cc1ccccc1 [Compound 18]	201 to 900 nM
COc1cccc2[nH]c(C(=O)NC3CCN(CCN4CCCCCC4)CC3)cc12 [Compound 12]	201 to 900 nM
Cc1c(C(=O)NC2CCN(CCN3CCCCCC3)CC2)[nH]c2ccc3ccccc3c12 [Compound 8]	201 to 900 nM
